Experimental data taken from ChEMBL document CHEMBL3351729, “Discovery of indanone derivatives as multi-target-directed ligands against Alzheimer's disease” (Eur J Med Chem, 2014).
Activity calls are given as the source filed them. The calls are words filed in the database; no cut-off is given here.

Experiments:
[1] = target: Acetylcholinesterase (Electrophorus electricus, UniProt O42275); assay: Inhibition of electric eel AChE preincubated for 15 mins by Ellman's method
[2] = target: Acetylcholinesterase (Homo sapiens, UniProt P22303); assay: Inhibition of human erythrocyte AChE preincubated for 15 mins by Ellman's method
[3] = target: Butyrylcholinesterase (Equus caballus, UniProt Q9N1N9)
Description: Inhibition of equine BChE preincubated for 15 mins by Ellman's method

[4] = target: Amyloid-beta precursor protein (Homo sapiens) (UniProt P05067); assay: Inhibition of amyloid beta (1-42) self-mediated aggregation (unknown origin) at 20 uM after 48 hrs by thioflavin T fluorescence method
[5] = target: Amyloid-beta precursor protein (Homo sapiens) (UniProt P05067); assay: Inhibition of amyloid beta (1-42) (unknown origin) fibril formation at 20 uM after 24 hrs by transmission electron microscopy
[6] = target: Amyloid-beta precursor protein (Homo sapiens) (UniProt P05067); assay: Disaggregation of amyloid beta (1-42) fibrils (unknown origin) at 20 uM after 24 hrs by thioflavin T fluorescence method
[7] = target: Amyloid-beta precursor protein (Homo sapiens) (UniProt P05067); assay: Disaggregation of amyloid beta (1-42) fibrils (unknown origin) at 20 uM after 24 hrs by transmission electron microscopy

Acetylcholinesterase (Electrophorus electricus, UniProt O42275), sequence (O42275 whole entry): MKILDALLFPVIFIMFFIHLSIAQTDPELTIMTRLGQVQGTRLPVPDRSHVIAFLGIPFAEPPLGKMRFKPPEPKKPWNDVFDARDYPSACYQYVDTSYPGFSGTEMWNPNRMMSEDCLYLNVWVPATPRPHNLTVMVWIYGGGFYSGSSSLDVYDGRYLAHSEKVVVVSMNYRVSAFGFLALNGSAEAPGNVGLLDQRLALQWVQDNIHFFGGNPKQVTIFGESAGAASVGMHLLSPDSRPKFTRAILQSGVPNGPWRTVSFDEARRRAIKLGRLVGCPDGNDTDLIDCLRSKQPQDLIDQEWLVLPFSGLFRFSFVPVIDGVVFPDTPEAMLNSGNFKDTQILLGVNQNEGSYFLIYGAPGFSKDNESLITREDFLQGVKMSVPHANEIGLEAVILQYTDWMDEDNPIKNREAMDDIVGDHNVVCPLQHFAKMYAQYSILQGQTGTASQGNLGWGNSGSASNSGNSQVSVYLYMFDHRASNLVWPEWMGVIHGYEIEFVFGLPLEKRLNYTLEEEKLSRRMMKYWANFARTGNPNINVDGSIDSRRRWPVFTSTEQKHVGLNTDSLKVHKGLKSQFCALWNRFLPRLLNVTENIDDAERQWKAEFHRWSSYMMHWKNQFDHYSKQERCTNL
Acetylcholinesterase (Homo sapiens, UniProt P22303), sequence (P22303 whole entry): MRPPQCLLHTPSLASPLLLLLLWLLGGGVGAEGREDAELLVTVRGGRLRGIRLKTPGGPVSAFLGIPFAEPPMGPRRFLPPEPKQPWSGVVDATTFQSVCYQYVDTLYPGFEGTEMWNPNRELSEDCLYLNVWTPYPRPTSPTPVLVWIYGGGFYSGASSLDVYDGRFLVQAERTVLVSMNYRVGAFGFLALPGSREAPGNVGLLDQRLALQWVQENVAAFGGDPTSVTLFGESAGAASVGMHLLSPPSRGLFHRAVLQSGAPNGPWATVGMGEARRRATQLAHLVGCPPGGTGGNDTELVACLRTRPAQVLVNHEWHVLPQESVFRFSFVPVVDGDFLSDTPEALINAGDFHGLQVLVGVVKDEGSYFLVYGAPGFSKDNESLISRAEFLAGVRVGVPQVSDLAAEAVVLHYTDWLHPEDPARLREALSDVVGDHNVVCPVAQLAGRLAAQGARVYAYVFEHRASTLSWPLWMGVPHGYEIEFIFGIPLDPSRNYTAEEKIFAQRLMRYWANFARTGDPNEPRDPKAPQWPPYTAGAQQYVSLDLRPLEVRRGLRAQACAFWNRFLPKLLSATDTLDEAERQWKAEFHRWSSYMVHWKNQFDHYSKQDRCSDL
Butyrylcholinesterase, sequence (Q9N1N9 whole entry): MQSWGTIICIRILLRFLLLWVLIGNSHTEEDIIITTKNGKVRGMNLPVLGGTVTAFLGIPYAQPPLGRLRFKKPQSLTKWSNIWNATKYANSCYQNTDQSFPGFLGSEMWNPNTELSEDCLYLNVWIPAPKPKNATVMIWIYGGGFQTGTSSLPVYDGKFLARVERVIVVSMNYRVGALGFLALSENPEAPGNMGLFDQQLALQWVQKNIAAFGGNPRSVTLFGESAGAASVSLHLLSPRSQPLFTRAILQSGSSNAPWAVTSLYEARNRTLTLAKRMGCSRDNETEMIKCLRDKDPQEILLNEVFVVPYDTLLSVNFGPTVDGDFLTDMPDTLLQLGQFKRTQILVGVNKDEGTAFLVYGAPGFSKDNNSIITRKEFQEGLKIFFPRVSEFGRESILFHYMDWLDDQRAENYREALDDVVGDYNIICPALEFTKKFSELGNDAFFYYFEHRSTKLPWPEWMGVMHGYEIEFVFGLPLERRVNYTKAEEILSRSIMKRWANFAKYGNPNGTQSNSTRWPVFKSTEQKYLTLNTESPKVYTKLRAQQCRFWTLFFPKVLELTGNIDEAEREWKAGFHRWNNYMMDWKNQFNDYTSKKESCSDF
Amyloid-beta precursor protein (Homo sapiens), sequence (P05067 whole entry): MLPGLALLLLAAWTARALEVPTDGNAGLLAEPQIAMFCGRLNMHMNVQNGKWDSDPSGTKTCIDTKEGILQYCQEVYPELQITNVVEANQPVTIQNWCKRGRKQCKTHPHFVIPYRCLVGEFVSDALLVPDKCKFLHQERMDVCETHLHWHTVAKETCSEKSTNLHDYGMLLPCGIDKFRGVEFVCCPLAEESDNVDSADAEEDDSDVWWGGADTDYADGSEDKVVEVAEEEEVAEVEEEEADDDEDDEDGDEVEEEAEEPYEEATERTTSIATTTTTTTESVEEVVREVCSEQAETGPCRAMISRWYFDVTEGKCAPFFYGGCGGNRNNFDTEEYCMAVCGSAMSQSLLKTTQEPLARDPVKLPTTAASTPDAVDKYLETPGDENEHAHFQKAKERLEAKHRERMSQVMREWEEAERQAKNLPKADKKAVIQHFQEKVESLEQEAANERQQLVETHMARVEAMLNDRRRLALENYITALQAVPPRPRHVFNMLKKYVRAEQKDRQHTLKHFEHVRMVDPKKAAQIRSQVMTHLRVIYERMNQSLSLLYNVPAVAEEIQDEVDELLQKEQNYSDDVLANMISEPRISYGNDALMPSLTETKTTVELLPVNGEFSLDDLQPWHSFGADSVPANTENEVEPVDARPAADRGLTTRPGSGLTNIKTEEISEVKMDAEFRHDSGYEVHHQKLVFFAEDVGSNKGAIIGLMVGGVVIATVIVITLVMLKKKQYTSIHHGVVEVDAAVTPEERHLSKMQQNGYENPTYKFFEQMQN

| Compound | IC50 [1] [nM] | IC50 [2] [nM] | IC50 [3] [nM] | inhibition [4] | inhibition [5] | Activity [6] [%] | Activity [7] |
| --- | --- | --- | --- | --- | --- | --- | --- |
| CCCN(CCC)c1ccc(/C=C2\Cc3cc(OC)c(OCCN4CCCCC4)cc3C2=O)cc1 | 14.6 | 954 | 1770 | – | – | – | – |
| CNc1ccc(/C=C2\Cc3cc(OC)c(OCCN4CCCCC4)cc3C2=O)cc1 | 16.8 | 301 | 1640 | – | – | – | – |
| COc1cc2c(cc1OCCN1CCCCC1)C(=O)/C(=C/c1ccc(N(C)C)cc1)C2 | 16.5 | 285 | 1490 | – | – | – | – |
| CCN(C)c1ccc(/C=C2\Cc3cc(OC)c(OCCN4CCCCC4)cc3C2=O)cc1 | 25.5 | 426 | 1270 | 85.2% | – | – | – |
| CCN(CC)c1ccc(/C=C2\Cc3cc(OC)c(OCCCCCN4CCCCC4)cc3C2=O)cc1 | 5730 | – | 2840 | – | – | – | – |
| COc1cc2c(cc1OCCCCNC1CCCCC1)C(=O)/C(=C/c1ccc(N(C)C)cc1)C2 | 9180 | – | 1130 | – | – | – | – |
| COc1ccc(/C=C2\Cc3cc(OC)c(OCCN4CCCCC4)cc3C2=O)cc1 | 14.8 | – | 3210 | inactive | – | – | – |
| CCN(CC)c1ccc(/C=C2\Cc3cc(OC)c(OCCN4CCCCC4)cc3C2=O)cc1 | 14.8 | 536 | 1380 | 85.5% | Active | 65 | Active |
| COc1cc2c(cc1OCCCNC1CCCCC1)C(=O)/C(=C/c1ccc(N(C)C)cc1)C2 | 1540 | – | 1330 | – | – | – | – |
| COc1cc2c(cc1OCCCCCN1CCCCC1)C(=O)/C(=C/c1ccc(N(C)C)cc1)C2 | 1030 | – | 2440 | – | – | – | – |
| CCN(CC)c1ccc(/C=C2\Cc3cc(OC)c(OCCCN4CCCCC4)cc3C2=O)cc1 | 371 | – | 2820 | – | – | – | – |
| COc1cc2c(cc1OCCNC1CCCCC1)C(=O)/C(=C/c1ccc(N(C)C)cc1)C2 | 102 | – | 363 | 84.3% | – | – | – |
| CCCN(C)c1ccc(/C=C2\Cc3cc(OC)c(OCCN4CCCCC4)cc3C2=O)cc1 | 18.6 | 390 | 1420 | 83.8% | Active | 73.8 | Active |
| COc1cc2c(cc1OCCCN1CCCCC1)C(=O)/C(=C/c1ccc(N(C)C)cc1)C2 | 330 | – | 1460 | – | – | – | – |
